# Laboratory results reported in patent US20020049157A1, “Use of proteasome inhibitors for treating cancer, inflammation, autoimmune disease, graft rejection and septic shock” (priority 1998, published 2002).
# Legend:
# [1] = tested on: C57BL/6 spleen cells; test: Mixed lymphocyte culture (MLR), alloantigen-specific response; format: cell-based, mouse; conditions: MLR treated on day 2 with LAC 8 μM for 3 h; restimulated after 8 days
# Method: The C57BL/6 spleen cells (H-2^b) were stimulated with mitomycin c-treated BALB/c spleen cells (H-2^d). On day 2 when most of the H-2^d-specific cells were activated, the mixed lymphocyte culture (MLR) was treated with lactacystin (LAC, 8 μM) for 3 h. After wash, the cells were put back in culture for additional 8 days, and then stimulated with either fresh BALB/c or C3H (H-2^k) spleen cells. […] The difference is more pronounced in day three of the culture.
# It is therefore an embodiment of this invention to use proteasome inhibitors, particularly lactacystin in transplantation and autoimmune diseases where certain undesirable activated T cells can be repressed or eliminated and the rest of the T cell population is generally unaffected by such inhibitors.
# [2] = tested on: Jurkat cells; test: Proliferation of Jurkat cells; format: cell-based; conditions: data not shown
# [3] = tested on: calpain, cathepsin B, chymotrypsin, trypsin, and papain; conditions: cited from earlier work
# [4] = tested on: Jurkat cells; test: Jurkat cell viability by trypan blue exclusion; format: cell-based; conditions: 6 μM LAC
# Method: Tonsillar T cells (A, B, and D) and Jurkat cells (C and E) were treated with LAC (10 μM for T cells and 6 μM for Jurkat cells). LAC was added at the beginning of the culture or 40 h after T cell activation as indicated. The cells were harvested at the time points as shown. They were evaluated for their viability with trypan blue exclusion (A, B, and C), and for their mode of cell death according to DNA fragmentation (D and E). The effect of LAC on Jurkat cells was quite similar to that on the activated T cells.
# [5] = tested on: Jurkat cells; test: Cell cycle progress in synchronized Jurkat cells (propidium iodide flow cytometry); format: cell-based
# Method: For the last 3 h of the treatment, LAC (6 μM) was added to the cultures destined to be treated by LAC later. The cells were then released by washing out nocodazole, and recultured in complete medium with or without 6 μM LAC. The cells were sampled at 0 h, 4 h and 8 h after the G2/M release, stained with propidium iodide, and analyzed with flow cytometry.
# B. LAC slows the cell cycle progress from the G1/S boundary to the G2/M phase in synchronized Jurkat cells Jurkat cells were synchronized at the G1/S by isoleucine starvation followed by a hydroxyurea treatment. The synchronized cells were released by washing out hydroxyurea and were cultured in complete medium in the absence or presence of LAC (6 μM). The cells were sampled at 0 h, 3 h, 6 h, 9 h, 12 h, 15 h and 24 h after the release, and were stained with propidium iodide and analyzed with flow cytometry.
# We used synchronized Jurkat cells to identify the LAC-sensitive phase(s) of the cell cycle. Jurkat cells were first synchronized at the G2/M boundary by nocodazole (FIG. 6A). […]
# We next studied requirement of the proteasome activity for the progression from the G1/S boundary to the G2/M phase. […] It is to be noted that although the percentage of cells in the S/G2/M phase in the LAC-treated sample was similar to that of controls (the inset table of FIG. 6B), the peak of fluorescence was lagged behind (histogram array). […]
# [6] = tested on: Tonsillar T cells; test: Electron microscopy of T cells; format: cell-based, human; conditions: LAC 10 μM, 24 h
# Method: A and B: Morphology of resting T cells treated with LAC. Tonsillar T cells were culture in the absence (A) or presence (B) of LAC ([…]) for 24 h, and the cells were examined by EM.
# C and D: Morphology of activated T cells treated with LAC. Tonsillar T cells were first activated with PHA (2 μg/ml) for 40 h. The cells were then cultured in the absence (C) or presence (D) of LAC (10 μM) for additional 24h, and were examined with EM.
# Electron microscopy was also employed to examine the mode of cell death induced by LAC. The resting T cells (cells cultured in medium, FIG. 3A), activated T cells (40 h after PHA activation, FIG. 3C), and Jurkat cells (FIG. 3E) were all healthy looking. […] The resting T cells treated with LAC (10 μM) for 24 h were still healthy (FIG. 3B).
# T cells and Jurkat cells were examined by electron microscopy as described by Tsao and Duguid (Tsao et al., 1987, Exp. Cell Res. 168:365).
structure (smiles),measurement,setting,value
"CC(=O)N[C@@H](CSC(=O)[C@]1([C@@H](O)C(C)C)NC(=O)[C@H](C)[C@@H]1O)C(=O)O [LAC, lactacystin]",response to restimulation with BALB/c cells,[1],failed to respond to the BALB/c cells
same,response to restimulation with third party C3H cells,[1],respond well to third party C3H
same,proliferation of Jurkat cells,[2],potently inhibited
same,effect on other proteases,[3],does not affect
same,trypan blue positive cells,[4]; 24 h culture,about 60%
same,cell death (trypan blue),[4]; less than 8 h exposure,did not induce apparent Jurkat cell death
same,cell cycle progression from the G1/S boundary to the G2/M phase,"[5]; HU-synchronized, LAC 6 μM added immediately after release",slowed but did not block
same,progress from G2/M through M phase to G1 phase,"[5]; nocodazole-synchronized, LAC 6 μM 3 h before and after release",at a similar pace as the control cells
same,nuclear condensation by electron microscopy,[6]; activated T cells (40 h after PHA),frequently observed
same,morphology by electron microscopy,[6]; resting T cells,still healthy
